Data on 5 molecules can be found in PMC5704987 (Fetal and pediatric pathology, 2017).

Data set [1] relates to oxytocin-induced uterine contractility. As to conditions: murine model, preliminary work by the group; ref [10]; cited from earlier work.
A short description of data set [2]: Progesterone metabolism in pooled human liver microsomes. In general terms: Liver microsomes are vesicles of endoplasmic reticulum, rich in cytochrome P450 enzymes.
The next data set has as its system CYP17A1. The note with it: microsomes from CYP17A1-transfected COS1 cells; ref [11]; cited from earlier work.
The target in another data set is recombinant human CYP3A4 (Homo sapiens, UniProt P08684). As to conditions: pH 7.4.
The conditions of data set [3]: human, microsomes, pH 7.4.
Data set [4] can be described thus: In vitro in vivo extrapolation to maternal liver. Further details: species or system human.
The nature of data set [5]: In vitro in vivo extrapolation to fetal liver. Also on record: species or system human.
For another data set, the target named is recombinant human CYP3A5 (Homo sapiens, UniProt P20815). As to conditions: recombinant enzyme, pH 7.4.
The nature of another data set: in vitro. As to conditions: human.
Data set [6] deals with T1, recombinant CYP19A1 (aromatase) (Homo sapiens, UniProt P11511).
T1 sequence (P11511 1-503): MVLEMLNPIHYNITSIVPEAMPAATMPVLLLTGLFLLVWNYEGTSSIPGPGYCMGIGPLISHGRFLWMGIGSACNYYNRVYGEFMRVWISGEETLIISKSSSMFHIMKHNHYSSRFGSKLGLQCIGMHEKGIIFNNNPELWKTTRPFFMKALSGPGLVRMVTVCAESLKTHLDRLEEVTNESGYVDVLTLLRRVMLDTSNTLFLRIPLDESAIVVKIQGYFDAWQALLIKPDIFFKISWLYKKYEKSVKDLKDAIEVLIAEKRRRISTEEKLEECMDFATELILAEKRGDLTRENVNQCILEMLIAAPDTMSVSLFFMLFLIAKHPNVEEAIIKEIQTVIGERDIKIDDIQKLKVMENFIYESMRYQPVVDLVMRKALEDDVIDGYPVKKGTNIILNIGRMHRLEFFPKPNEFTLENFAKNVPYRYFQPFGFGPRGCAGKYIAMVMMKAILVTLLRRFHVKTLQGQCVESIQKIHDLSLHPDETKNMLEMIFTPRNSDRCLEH
Nature of the data set: Progesterone incubation with recombinant CYP19A1. The class given is in vitro ADME. The note with it: progesterone 100 μM, CYP19A1 25 pmol, data not shown.

The target of a further data set is T2, recombinant CYP2A6 (Homo sapiens, UniProt P11509).
T2 sequence (P11509 1-494): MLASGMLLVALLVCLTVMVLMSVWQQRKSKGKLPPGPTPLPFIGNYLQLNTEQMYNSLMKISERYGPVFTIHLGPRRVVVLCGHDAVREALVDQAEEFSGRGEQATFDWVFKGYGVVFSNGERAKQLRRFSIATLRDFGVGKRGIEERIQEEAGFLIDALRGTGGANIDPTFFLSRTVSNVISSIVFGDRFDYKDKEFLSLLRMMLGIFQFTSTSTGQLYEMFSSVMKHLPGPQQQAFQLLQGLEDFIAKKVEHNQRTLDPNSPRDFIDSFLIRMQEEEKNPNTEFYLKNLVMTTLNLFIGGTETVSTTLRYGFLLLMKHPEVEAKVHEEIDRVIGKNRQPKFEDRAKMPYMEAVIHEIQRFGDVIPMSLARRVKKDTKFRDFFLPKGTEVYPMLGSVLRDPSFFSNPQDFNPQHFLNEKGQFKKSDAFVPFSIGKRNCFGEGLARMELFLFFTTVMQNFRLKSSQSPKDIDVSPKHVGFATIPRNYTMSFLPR
Nature of the data set: Progesterone incubation with recombinant CYP2A6. The class given is in vitro ADME. The note with it: recombinant CYP2A6, data not shown.

Substrate in data set [7]: CC(=O)[C@H]1CC[C@H]2[C@@H]3CCC4=CC(=O)CC[C@]4(C)[C@H]3CC[C@]12C
Substrate in the data set “not read”: CC(=O)[C@H]1CC[C@H]2[C@@H]3CCC4=CC(=O)CC[C@]4(C)[C@H]3CC[C@]12C
The experiment in a line: not read. The note with it: other: rCYP3A5 20 pmol, progesterone 20–250 μM; mean ± SE (95% CI); pH 7.4.

The mark [8] stands for this setting: Maternal, CYP3A5*0*0 (nonexpresser).
[9] abbreviates: Fetal, CYP3A5*0*0 (nonexpresser).
The mark [10] stands for this setting: HLMs 0.5 mg/mL, progesterone 20–250 μM, 30 min, mean ± SE.

Where “and” joins values, the source holds several entries; their conditions need not be identical. Identical values can stand only once. Like-named read-outs stand apart in the source and are kept apart here.

Chain of recombinant human CYP3A4 (P08684 2-503 limits assumed): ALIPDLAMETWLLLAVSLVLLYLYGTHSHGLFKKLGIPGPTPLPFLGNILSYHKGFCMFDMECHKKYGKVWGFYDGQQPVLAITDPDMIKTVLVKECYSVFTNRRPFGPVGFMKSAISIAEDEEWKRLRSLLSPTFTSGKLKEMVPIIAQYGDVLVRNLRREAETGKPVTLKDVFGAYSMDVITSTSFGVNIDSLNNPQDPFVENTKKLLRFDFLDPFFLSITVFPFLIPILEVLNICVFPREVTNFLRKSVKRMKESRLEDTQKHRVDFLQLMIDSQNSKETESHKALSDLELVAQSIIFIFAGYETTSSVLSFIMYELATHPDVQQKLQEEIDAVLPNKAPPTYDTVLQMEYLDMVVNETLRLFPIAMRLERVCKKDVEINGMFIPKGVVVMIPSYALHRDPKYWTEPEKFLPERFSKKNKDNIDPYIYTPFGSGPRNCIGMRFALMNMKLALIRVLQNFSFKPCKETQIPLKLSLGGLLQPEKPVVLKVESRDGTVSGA

As to `CC(=O)[C@H]1CC[C@H]2[C@@H]3C[C@@H](O)C4=CC(=O)CC[C@]4(C)[C@H]3CC[C@]12C` [6β-OHP, 6β-hydroxyprogesterone], the “effect on oxytocin-induced uterine contractility frequency” value in [1] was “increased”. Moreover, the “further metabolism on incubation with HLMs” value in [2] (metabolite incubated with HLMs, data not shown) is recorded as “did not yield additional metabolism products”.

On to `CC(=O)[C@H]1CC[C@H]2[C@@H]3CCC4=CC(=O)CC[C@]4(C)[C@H]3CC[C@]12C` [progesterone, Progesterone], for which, in the data set on CYP17A1, the “Vmax for 16α-OHP formation” value is given as 0.12 nmol/h/mg protein and the “Vmax for 17α-OHP formation” value is listed as 0.46 nmol/h/mg protein. For the same molecule, on recombinant human CYP3A4, the “6β-OHP Vmax” value is given as 22.3 ± 1.1 (20.1–24.6) pmol/min/pmol protein. Moreover, at recombinant human CYP3A4 (recombinant enzyme), the “6β-OHP CLint” value stood at 2.3 μL/min/pmol protein and the “enzymatic activity (CLint) for 6β-OHP, CYP3A4 relative to CYP3A5” value is recorded as 25 fold. Further, in data set [3], the “intrinsic clearance (CLint), 6β-OHP formation” value was 59.2 μL/min/mg protein. Also, in data set [4] (setting [8]), the “6β-OHP CLf” value is listed as 624 L/h; the “16α-OHP CLf” value is 346 L/h; the “CLint, H” value is 970 L/h. Besides, the “6β-OHP formation relative to 16α-OHP” value in data set [4] (maternal, CYP3A5 expressers) is given as 2 fold. Also, the “reduction in clearance of progesterone in CYP3A5 nonexpressers” value in data set [4] (maternal, vs CYP3A5 expressers) is recorded as 5%. Further, in [5], the “6β-OHP formed, fetuses expressing active CYP3A5 relative to nonexpressers” value was ~ 3 times and the “clearance from fetal liver relative to maternal liver” value is given as “less than 0.1%”. In data set [5] (setting [9]), the “6β-OHP CLf” value is on record as 0.19 L/h; the “16α-OHP CLf” value is 0.13 L/h; the “CLint, H” value is 0.32 L/h. For the same molecule, the “activity (CLint) for 6β-OHP, CYP3A5 relative to CYP3A7” value on recombinant human CYP3A5 is on record as 23 fold. Also, the Km at 30 min in “in vitro” (pH 7.4, Km for formation of 6β-OHP) came out at 27.7 ± 8.1 µM. Further, in “in vitro” (pH 7.4, Km for formation of 16α-OHP), the Km at 30 min is 29.8 ± 5.7 µM. Also, in [2] (setting [10]), the “Vmax for formation of 6β-OHP” value worked out at 1640±111 pmol/min/mg protein and the “Vmax for formation of 16α-OHP” value was determined as 192.1 ± 8.9 pmol/min/mg protein. Further, the “formation of 6β-OHP and 16α-OHP metabolites” value in data set [6] is given as “minimal formation”. Further, the metabolite formation result on recombinant CYP2A6 is reported as “did not produce detectable metabolites”.

Consider `CC(=O)[C@H]1[C@H](O)C[C@H]2[C@@H]3CCC4=CC(=O)CC[C@]4(C)[C@H]3CC[C@@]21C` [16α-OHP, 16α-hydroxyprogesterone], for which the “effect on oxytocin-induced uterine contractility frequency” value in [1] is listed as “decreased”.

B1: recombinant human CYP3A7 (Homo sapiens) (protein)
chain: MDLIPNLAVETWLLLAVSLILLYLYGTRTHGLFKKLGIPGPTPLPFLGNALSFRKGYWTFDMECYKKYRKVWGIYDCQQPMLAITDPDMIKTVLVKECYSVFTNRRPFGPVGFMKNAISIAEDEEWKRIRSLLSPTFTSGKLKEMVPIIAQYGDVLVRNLRREAETGKPVTLKHVFGAYSMDVITSTSFGVSIDSLNNPQDPFVENTKKLLRFNPLDPFVLSIKVFPFLTPILEALNITVFPRKVISFLTKSVKQIKEGRLKETQKHRVDFLQLMIDSQNSKDSETHKALSDLELMAQSIIFIFAGYETTSSVLSFIIYELATHPDVQQKVQKEIDTVLPNKAPPTYDTVLQLEYLDMVVNETLRLFPVAMRLERVCKKDVEINGMFIPKGVVVMIPSYVLHHDPKYWTEPEKFLPERFSKKNKDNIDPYIYTPFGSGPRNCIGMRFALVNMKLALVRVLQNFSFKPCKETQIPLKLRFGGLLLTEKPIVLKAESRDETVSGA
The kcat is the maximal rate divided by the concentration of active sites. A word on the kcat/Km: it is the turnover number divided by the Michaelis constant. For the molecule B1, in data set [7], the Km is 43.8 ± 31.0 (6.4–199) μM and 44.4 ± 23.5 (15.1–116) μM; the kcat is 0.00167 s⁻¹ and 0.00333 s⁻¹; the kcat/Km was 50 M⁻¹ s⁻¹ and 66.7 M⁻¹ s⁻¹.

B2: recombinant human CYP3A5 (Homo sapiens) (protein)
chain: MDLIPNLAVETWLLLAVSLVLLYLYGTRTHGLFKRLGIPGPTPLPLLGNVLSYRQGLWKFDTECYKKYGKMWGTYEGQLPVLAITDPDVIRTVLVKECYSVFTNRRSLGPVGFMKSAISLAEDEEWKRIRSLLSPTFTSGKLKEMFPIIAQYGDVLVRNLRREAEKGKPVTLKDIFGAYSMDVITGTSFGVNIDSLNNPQDPFVESTKKFLKFGFLDPLFLSIILFPFLTPVFEALNVSLFPKDTINFLSKSVNRMKKSRLNDKQKHRLDFLQLMIDSQNSKETESHKALSDLELAAQSIIFIFAGYETTSSVLSFTLYELATHPDVQQKLQKEIDAVLPNKAPPTYDAVVQMEYLDMVVNETLRLFPVAIRLERTCKKDVEINGVFIPKGSMVVIPTYALHHDPKYWTEPEEFRPERFSKKKDSIDPYIYTPFGTGPRNCIGMRFALMNMKLALIRVLQNFSFKPCKETQIPLKLDTQGLLQPEKPIVLKVDSRDGTLSGE
On to B2, for which, in “not read”, the Km was 72.5 ± 24.3 (19.5–125) μM and 60.2 ± 11.9 (40.2–89.7) μM; the kcat turned out to be 0.00367 s⁻¹; the kcat/Km came to 50 M⁻¹ s⁻¹.
